Data taken from ChEMBL document CHEMBL1201862, “PubChem BioAssay data set” (2004).
Counter-ions that a name gives are not always drawn. Active and inactive are the calls of the source.

Experiments:
[1] = biological target: Large T antigen (Simian virus 40, UniProt P03070); format: functional, Betapolyomavirus macacae;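 note: Confirmatory-stage PubChem screen for compounds that inhibit SV40 T antigen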
[2] = biological target: Protein Tat (Human immunodeficiency virus type 1 group M subtype B (isolate HXB2)(HIV-1), UniProt P04608); format: functional;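 note: tat binding to TAR RNA read out by fluorescence polarization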
[3] = HeLa 2N DNA content increase, dose response, cell-based, IC50 (AID 1117349); format: functional
[4] = Concentration-dependent survival of SW480 colon cancer line, luminescence detection with CellTiter-Glo, half-maximal inhibitory concentration (AID 1117338); format: functional
[5] = RKO cell viability reduction, dose response, CellTiter-Glo luminescence (AID 1117322); format: functional
[6] = cytotoxicity toward HCT116 cells – cell-based, CellTiter-Glo luminescence, IC50, dose response (AID 1117332); format: functional; conditions: HCT-116
[7] = SNU-C1 cell viability reduction, dose response, CellTiter-Glo luminescence (AID 1117323); format: functional, cell-based
[8] = half-maximal inhibitory concentration for glucagon-like peptide-1 release, STC-1 cell line, dose-response (AID 1117345); format: functional, cell-based
[9] = cytotoxicity toward Colo320 cells – cell-based, CellTiter-Glo luminescence, IC50, dose response (AID 1117334); format: functional; conditions: COLO 320
[10] = HeLa 4N DNA content increase, dose response, cell-based, IC50 (AID 1117351); format: functional
[11] = cytotoxicity toward HT-29 cells – cell-based, CellTiter-Glo luminescence, IC50, dose response (AID 1117330); format: functional
[12] = CellTiter-Glo luminescent dose response of DLD-1 viability loss (AID 1117352); format: functional
[13] = HCT116 cell viability decrease, GSK3B pretreatment – CellTiter-Glo, IC50, dose response (AID 1117339); format: functional; conditions: HCT-116
[14] = Glucagon-like peptide 1 release potency, NCI-H716 cell line, dose-response, half-maximal inhibitory concentration (AID 1117344); format: functional, cell-based
[15] = Dose-response inhibition of insulin secretion in a rat insulinoma line at 5 mM glucose (AID 1117331); format: functional, cell-based; conditions: INS-1E
[16] = fibronectin fibrillogenesis inhibitors in fibroblasts, dose response, AH1F cells, Alexa488-fibronectin fluorescence, cherry-pick, set 2 (AID 1117283); format: functional, cell-based
[17] = inhibitors of firefly luciferase expression or activity, dose response, H4 neuroglioma cells, luminescence (AID 1990); format: functional, cell-based
[18] = test system: Streptococcus sp. 'group A'; assay: growth inhibition of control SK(-) GAS strain, dose response, counter-screen for streptokinase expression inhibitor project, luminescence, kanamycin, BacTiterGlo, confirmation (AID 1900); format: functional, organism-based
[19] = Luminescence Cell-Based Dose Response HTS to Identify Inhibitors of 5'UTR Stem-Loop Driven Prion Protein mRNA Translation in H4 Neuroglioblastoma Cells. [Related pubchem assays: 1827 (Project Summary), 1813 (Primary HTS)]; format: functional
[20] = inhibitors of SNCA 5'UTR-driven reporter translation, confirmation, H4 neuroglioma cells, luminescence (AID 1988); format: functional, cell-based
[21] = inhibitors of intracellular T. cruzi replication, confirmation, NIH3T3 host cells, beta-gal luminescence (AID 2044); format: functional, cell-based;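 note: intracellular parasites grown in NIH/3T3 mouse fibroblasts as host cells; luminescent beta-galactosidase reporter signal from transgenic T. cruzi replicating inside host cells; inhibitors lower the luminescence signal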
[22] = cytotoxicity toward NIH3T3 fibroblasts, dose response, counter-screen, cell-based, ATP luminescence, mouse fibroblasts (AID 2010); format: functional;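 note: cells exposed to compound for about 90 hours before reading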
[23] = test system: Streptococcus; assay: Group A Streptococcus viability loss, dose response, counter-screen for streptokinase expression inhibitor project, luminescence, BacTiterGlo (AID 1915); format: functional, organism-based;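 note: potency for reduction of bacterial viability or growth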
[24] = biological target: T1, Replicative DNA helicase DnaB (Mycobacterium tuberculosis, UniProt P9WMR3); assay: DnaB intein splicing inhibitors, dose response, biochemical, cell-free fluorescence (AID 449749); format: functional
T1 sequence (P9WMR3 whole entry): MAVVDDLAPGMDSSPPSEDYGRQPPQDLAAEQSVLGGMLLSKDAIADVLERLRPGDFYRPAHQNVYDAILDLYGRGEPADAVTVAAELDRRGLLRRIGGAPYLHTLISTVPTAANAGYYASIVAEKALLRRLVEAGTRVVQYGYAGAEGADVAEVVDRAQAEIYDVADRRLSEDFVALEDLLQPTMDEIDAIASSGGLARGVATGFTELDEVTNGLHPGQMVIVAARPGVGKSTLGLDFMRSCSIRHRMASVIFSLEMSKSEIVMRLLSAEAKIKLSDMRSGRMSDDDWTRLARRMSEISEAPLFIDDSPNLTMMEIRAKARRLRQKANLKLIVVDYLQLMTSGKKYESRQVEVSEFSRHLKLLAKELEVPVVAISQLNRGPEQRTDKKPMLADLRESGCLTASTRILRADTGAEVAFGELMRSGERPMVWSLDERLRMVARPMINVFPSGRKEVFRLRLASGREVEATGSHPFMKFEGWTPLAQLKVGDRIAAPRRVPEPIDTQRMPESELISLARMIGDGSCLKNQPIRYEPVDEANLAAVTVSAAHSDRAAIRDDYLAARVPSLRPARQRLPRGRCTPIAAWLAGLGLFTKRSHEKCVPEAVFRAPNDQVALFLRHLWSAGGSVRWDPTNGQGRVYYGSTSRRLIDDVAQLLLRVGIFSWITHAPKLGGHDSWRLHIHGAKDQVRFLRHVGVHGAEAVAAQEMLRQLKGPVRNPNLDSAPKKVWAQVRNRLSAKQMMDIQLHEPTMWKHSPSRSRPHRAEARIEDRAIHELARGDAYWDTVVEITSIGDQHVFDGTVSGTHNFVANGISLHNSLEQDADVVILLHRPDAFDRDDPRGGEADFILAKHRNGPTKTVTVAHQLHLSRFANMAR

[25] = biological target: T2, Apoptotic protease-activating factor 1 (Homo sapiens, UniProt O14727); format: functional
T2 sequence (O14727 whole entry): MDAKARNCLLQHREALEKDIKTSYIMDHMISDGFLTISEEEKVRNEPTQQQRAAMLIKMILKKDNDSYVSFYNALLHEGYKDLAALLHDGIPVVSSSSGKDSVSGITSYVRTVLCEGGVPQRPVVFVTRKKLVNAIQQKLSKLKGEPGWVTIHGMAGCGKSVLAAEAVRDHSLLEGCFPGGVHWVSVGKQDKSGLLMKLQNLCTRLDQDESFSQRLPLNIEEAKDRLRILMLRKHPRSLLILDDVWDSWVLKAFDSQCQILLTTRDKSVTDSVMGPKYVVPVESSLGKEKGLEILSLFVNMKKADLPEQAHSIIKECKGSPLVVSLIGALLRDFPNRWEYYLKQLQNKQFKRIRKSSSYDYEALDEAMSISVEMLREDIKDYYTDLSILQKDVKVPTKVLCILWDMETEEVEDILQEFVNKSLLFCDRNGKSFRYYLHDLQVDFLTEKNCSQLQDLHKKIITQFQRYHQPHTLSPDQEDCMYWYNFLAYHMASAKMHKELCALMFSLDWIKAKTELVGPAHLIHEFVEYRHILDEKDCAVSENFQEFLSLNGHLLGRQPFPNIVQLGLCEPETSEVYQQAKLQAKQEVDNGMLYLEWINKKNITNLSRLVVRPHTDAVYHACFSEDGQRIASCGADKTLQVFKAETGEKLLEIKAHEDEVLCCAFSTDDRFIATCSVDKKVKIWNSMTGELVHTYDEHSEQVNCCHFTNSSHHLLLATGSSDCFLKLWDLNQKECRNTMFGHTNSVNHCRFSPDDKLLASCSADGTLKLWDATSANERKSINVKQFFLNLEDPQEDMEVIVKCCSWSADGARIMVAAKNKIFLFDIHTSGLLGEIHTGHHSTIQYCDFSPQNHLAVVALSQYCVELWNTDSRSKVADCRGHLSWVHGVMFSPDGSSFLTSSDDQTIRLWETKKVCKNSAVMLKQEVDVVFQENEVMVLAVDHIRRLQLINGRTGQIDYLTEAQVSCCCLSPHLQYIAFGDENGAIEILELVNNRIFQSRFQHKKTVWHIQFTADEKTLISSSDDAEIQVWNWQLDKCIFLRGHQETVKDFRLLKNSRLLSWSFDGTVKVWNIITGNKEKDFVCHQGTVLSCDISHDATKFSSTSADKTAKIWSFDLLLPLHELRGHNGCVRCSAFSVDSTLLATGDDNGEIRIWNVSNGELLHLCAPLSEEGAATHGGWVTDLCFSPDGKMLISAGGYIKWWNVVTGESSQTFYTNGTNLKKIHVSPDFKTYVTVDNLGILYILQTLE

[26] = biological target: T3, Protein RecA (Mycobacterium tuberculosis, UniProt P9WHJ3); assay: Fluorescence Cell-Free Homogeneous Dose Retest to Identify Inhibitors of RecA-Intein Splicing Activity. [Related pubchem assays (depositor defined):AID2097, AID2223, AID489010, AID492950]; format: functional
T3 sequence (P9WHJ3 whole entry): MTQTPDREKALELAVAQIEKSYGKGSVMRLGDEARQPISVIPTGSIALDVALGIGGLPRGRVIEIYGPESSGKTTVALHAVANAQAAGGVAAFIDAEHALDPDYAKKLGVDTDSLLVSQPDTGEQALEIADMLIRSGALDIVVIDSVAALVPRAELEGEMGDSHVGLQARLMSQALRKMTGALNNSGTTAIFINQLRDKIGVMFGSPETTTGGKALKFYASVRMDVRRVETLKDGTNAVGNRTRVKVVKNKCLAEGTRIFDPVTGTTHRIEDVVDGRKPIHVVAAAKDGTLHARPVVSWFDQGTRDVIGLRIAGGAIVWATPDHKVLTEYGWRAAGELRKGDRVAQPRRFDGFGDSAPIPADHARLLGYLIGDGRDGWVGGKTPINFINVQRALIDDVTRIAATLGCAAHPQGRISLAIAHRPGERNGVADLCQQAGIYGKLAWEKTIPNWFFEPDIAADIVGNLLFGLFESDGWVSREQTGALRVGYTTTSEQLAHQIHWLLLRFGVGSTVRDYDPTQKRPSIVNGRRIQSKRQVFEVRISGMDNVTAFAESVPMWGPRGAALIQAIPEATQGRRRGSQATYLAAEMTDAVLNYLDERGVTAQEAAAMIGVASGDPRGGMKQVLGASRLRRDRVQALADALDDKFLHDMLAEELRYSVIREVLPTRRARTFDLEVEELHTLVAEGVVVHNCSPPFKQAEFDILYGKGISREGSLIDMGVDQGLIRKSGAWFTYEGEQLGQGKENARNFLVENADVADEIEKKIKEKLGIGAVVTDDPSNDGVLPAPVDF

[27] = Artemis endonuclease inhibitor potency, dose response, biochemical, fluorescence intensity (AID 720701); format: functional;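 note: Artemis endonuclease enzyme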
[28] = biological target: G-protein coupled receptor 183 (Homo sapiens, UniProt P32249); assay: SAR confirmation of small molecule antagonists of the EBI2 receptor via a luminescent beta-arrestin assa.; format: functional
G-protein coupled receptor 183, sequence (P32249 whole entry): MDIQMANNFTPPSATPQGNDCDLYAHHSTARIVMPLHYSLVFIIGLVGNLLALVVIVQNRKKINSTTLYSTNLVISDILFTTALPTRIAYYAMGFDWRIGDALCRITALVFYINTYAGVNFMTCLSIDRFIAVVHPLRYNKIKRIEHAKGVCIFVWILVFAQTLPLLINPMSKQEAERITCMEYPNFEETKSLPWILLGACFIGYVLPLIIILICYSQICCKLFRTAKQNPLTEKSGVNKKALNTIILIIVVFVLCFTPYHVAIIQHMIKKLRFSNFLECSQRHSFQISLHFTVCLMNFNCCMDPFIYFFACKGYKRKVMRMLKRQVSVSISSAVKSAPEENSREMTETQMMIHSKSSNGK

Protein Tat, sequence (P04608 whole entry): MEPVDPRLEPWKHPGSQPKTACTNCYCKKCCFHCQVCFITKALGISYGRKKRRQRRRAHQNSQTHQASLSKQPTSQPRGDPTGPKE
Large T antigen, sequence (P03070 whole entry): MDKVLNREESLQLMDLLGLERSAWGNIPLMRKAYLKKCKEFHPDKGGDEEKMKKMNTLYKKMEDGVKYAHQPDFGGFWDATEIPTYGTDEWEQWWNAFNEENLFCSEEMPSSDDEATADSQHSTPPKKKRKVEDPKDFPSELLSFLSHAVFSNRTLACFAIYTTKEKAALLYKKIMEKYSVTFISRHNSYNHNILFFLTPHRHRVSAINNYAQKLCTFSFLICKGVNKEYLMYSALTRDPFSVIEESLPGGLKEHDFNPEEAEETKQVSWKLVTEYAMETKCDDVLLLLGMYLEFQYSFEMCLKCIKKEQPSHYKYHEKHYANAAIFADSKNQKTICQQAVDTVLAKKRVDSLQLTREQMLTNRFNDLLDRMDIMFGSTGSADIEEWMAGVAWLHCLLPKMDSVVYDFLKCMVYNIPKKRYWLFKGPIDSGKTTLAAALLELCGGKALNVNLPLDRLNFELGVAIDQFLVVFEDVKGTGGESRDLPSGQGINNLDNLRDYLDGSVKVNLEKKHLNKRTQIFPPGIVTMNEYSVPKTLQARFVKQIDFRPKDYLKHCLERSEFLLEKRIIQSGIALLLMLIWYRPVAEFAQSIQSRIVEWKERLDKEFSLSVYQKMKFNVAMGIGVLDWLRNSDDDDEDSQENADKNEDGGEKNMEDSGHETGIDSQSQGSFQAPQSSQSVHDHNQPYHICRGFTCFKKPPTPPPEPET

## NC(=O)c1ccc(N2CCN(c3ccc(O)cc3)CC2)c([N+](=O)[O-])c1
[1]
  IC50: 8.31 µM (active)
[2]
  IC50: > 100 µM (active)

## CCN(CC)CCOc1ccc(C(O)(Cc2ccc(Cl)cc2)c2ccc(C)cc2)cc1 (stereo not drawn) [TRIPARANOL]
[3]
  IC50: > 10 µM (inactive)
[4]
  IC50: 3.76 µM (active)
[5]
  IC50: 0.299 µM (active)
[6]
  IC50: > 20 µM (inactive)
[7]
  IC50: 2.46 µM (active)
[8]
  IC50: > 40 µM (inactive)
[9]
  IC50: 8.99 µM (inactive)
[10]
  IC50: > 10 µM (inactive)
[11]
  IC50: 3.17 µM (active)
[12]
  IC50: > 20 µM (inactive)
[13]
  IC50: 3.74 µM (active)
[14]
  IC50: 36.1 µM (inactive)

## CCN(CC)CCOC(=O)C(C)(c1ccccc1)c1ccccc1 [APROFENE]
[15]
  IC50: > 11.1 µM (inactive)

## C[C@H](O)C#Cc1ccc2c(c1)O[C@H](CN(C)C)[C@@H](C)CN([C@@H](C)CO)S2(=O)=O
[16]
  AC50: > 70 µM (inactive)

## O=C1c2ccccc2C(=O)c2c1oc(C(F)(F)F)c2C(=O)c1ccccc1
[17]
  EC50: 6.73 µM (active)
[18]
  EC50: 2.11 µM (active)
[19]
  EC50: 7.26 µM (active)
[20]
  EC50: 3.37 µM (active)
[21]
  EC50: 1.76 µM (active)
[22]
  EC50: > 60 µM (not active)
[23]
  EC50: 2.41 µM (active)
[24]
  AC50: > 380 µM (inconclusive)
[25]
  IC50: 4.72 µM (active)
[26]
  EC50: 15.3 µM (active)
[27]
  IC50: > 20 µM (inactive)

## COCC(=O)O[C@]1(CCN(C)CCCc2nc3ccccc3[nH]2)CCc2cc(F)ccc2[C@@H]1C(C)C [MIBEFRADIL DIHYDROCHLORIDE]
[4]
  IC50: 4.54 µM (active)
[5]
  IC50: 6.72 µM (inactive)
[6]
  IC50: 12.4 µM (inactive)
[7]
  IC50: 5.44 µM (inactive)
[8]
  IC50: 8.24 µM (inactive)
[9]
  IC50: 10.5 µM (inactive)
[11]
  IC50: 3.08 µM (active)
[12]
  IC50: 7.26 µM (inactive)
[13]
  IC50: 5.33 µM (inactive)
[14]
  IC50: > 40 µM (inactive)

## Cc1cc(O)c2c(O)c3c(O)cccc3cc2c1
[15]
  IC50: > 33.3 µM (inactive)
[8]
  IC50: 11.3 µM (inactive)
[14]
  IC50: > 20 µM (inactive)

## O=C(c1ccc(Br)cc1)N1CCN(Cc2ccc(Cl)cc2)CC1
[28]
  IC50: 0.478 µM (active)

## C[C@@H]1CN([C@H](C)CO)C(=O)c2cc(-c3ccccc3)cnc2O[C@@H]1CN(C)C(=O)c1cccc(F)c1
[16]
  AC50: > 70 µM (inactive)

## CCC(C)N1CCN(C(=O)/C=C/c2ccc(Br)cc2)CC1 (stereo not drawn)
[28]
  IC50: 0.00223 µM (active)
